The text below walks through data of ChEMBL document CHEMBL1145554, “First CoMFA characterization of vesamicol analogs as ligands for the vesicular acetylcholine transporter” (J Med Chem, 2008).

The nature of the test: Displacement of [3H]vesamicol from VAChT receptor in torpedo electrical organ synaptic vesicle. For orientation: In a radioligand displacement assay an active substance lowers the binding of a labelled ligand.
The Ki is the dissociation constant of the complex between target and ligand, obtained from inhibition or displacement. Take `O[C@@H]1C[C@H]2CCCC[C@@H]2C[C@H]1N1CCC(c2ccccc2)CC1`: the affinity, expressed as Ki, was 0.009 nM. This counts as picomolar.

`O=C(CN1C2CCC1CC(c1ccccc1)C2)c1ccc(F)cc1` (stereo not drawn) had a Ki of 3400 nM.

`O[C@@H]1CCCC[C@H]1N1CCC(c2ccccc2)CC1` (relative stereo) [VESAMICOL] gave a Ki of 7.6 nM.
